Source: ChEMBL document CHEMBL1142605, “Stemoninines from the roots of Stemona tuberosa” (2006)

Experiments:
Cavia porcellus [1] = assay: Antitussive activity in Dunkin-Hartley guinea pig assessed as inhibition of citric acid-induced cough at 100 mg/kg, ip administered 30 mins before citric acid challenge; type: functional; settings: route intraperitoneal
Cavia porcellus [2] = assay: Antitussive activity in ip dosed Dunkin-Hartley guinea pig assessed as inhibition of citric acid-induced cough administered 30 mins before citric acid challenge; type: functional

Compound | inhibition in vivo at 100 mg/kg (Cavia porcellus [1]) | Activity (Cavia porcellus [2]) | ED50 (Cavia porcellus [2])
CC[C@H]1[C@@H]2c3ccc([C@@H]4C[C@H](C)C(=O)O4)n3CCC[C@H]2O[C@]12C=C(C)C(=O)O2 [BISDEHYDROSTEMONININE] | 90% | Dose-dependent effect | 188 µmol/kg
CC[C@@H]1[C@H]2CCCCN3[C@H]2[C@@H](C[C@H]3[C@@H]2C[C@H](C)C(=O)O2)[C@H]2[C@@H]1OC(=O)[C@H]2C [NEOTUBEROSTEMONINE] | – | – | 66 µmol/kg
